Patent US5100909A, “Acetylenic imidazoles having central nervous system activity” (The Upjohn Company, priority 1991, dated 1992)
Several values for one entry are separate records, joined by “and”; a condition that tells them apart may be missing. Equal values may be shown once. Read-outs that look alike come from different tables or passages of the source.

Legend:
[1] = U.S. Pat. No. 3,925,411; cited from earlier work
[2] = target: CNS cholinergic receptor; assay type: binding; conditions: tritiated quinuclidine benzylate; read-out: CNS Cholinergic Receptor Binding Assays Ki (nM) QNB
[3] = tested on: oxotremorine-induced body tremor in mice; assay: Oxotremorine antagonist assay (body tremor) in mice; assay type: in vivo; conditions: Mus musculus, ip, read-out: Oxot. Antagonist Tremor (ED50)
Protocol: Oxotremorine antagonist assays were performed on groups of six mice weighing 18-22 g. Each was dosed intraperitoneally with the test compound prepared in 0.25% methylcellulose and were placed in individual cages. Twenty minutes later the mice were injected subcutaneously with 0.5 mg/kg of oxotremorine dissolved in saline. Ten minutes later the mice were scored for body tremor. Doses of the compound under study began at 100 mg/kg and were decreased at a 0.5 log interval until no responders were obtained.

[4] = target: CNS cholinergic receptor; assay: Cholinergic receptor binding assay, tritiated oxotremorine M ligand; conditions: read-out: CNS Cholinergic Receptor Binding Assays Ki (nM) Oxotremorine
[5] = tested on: laboratory animals; conditions: by a cholinergic mechanism at extremely low doses; cited from earlier work
[6] = tested on: HCl-induced writhing in CF1 mice; assay: Analgesic activity, HCl writhing protection in mice; assay type: in vivo; conditions: Mus musculus, sc, 0.25 h, read-out: CNS Id (ED50 mg/kg) HCl Writh. Protect
Protocol: For determination of analgesic activity, the test compound was injected subcutaneously into a group of four CF1 mice. Thirty minutes later the mice were injected i.p. with 0.15% HCl, 10 ml./kg. Mice are then placed in plastic boxes and observed for fifteen minutes to record the number of animals failing to writhe.

O=C1CCCN1CCC#CCN1CCCC1 [N-(5-pyrrolidino-3-pentynyl)-pyrrolidin-2-one]
half life compared with prior oxotremorine compounds [1]: increased half life

O=C1CCCN1CC#CCN1CCCC1 [Oxotremorine, N-(4-pyrrolidino-2-butynyl)-pyrrolidin-2-one, reference compound]
Ki [2]: 220 nM
ED50 [3]: 0.11 mg/kg
Ki [4]: 0.4 nM and 0.5 nM
tremors and spasticity in laboratory animals [5]: induces tremors and spasticity in laboratory animals
ED50 [6]: 0.025 mg/kg
